In PubChem BioAssay AID328 (DTP/NCI, 2004):
“And” between values parts separate entries of the source, which are not always exact repeats. Equal values may be shown once. Inconclusive results and toxic doses are left out. Starred links: 1 amine or outer side, 2 acyl side, 3 side chain; linkers in the order of their positions; H or OH if unused. Positions of bridges follow the written chain, without caps; N, C: chain ends. Non-standard residues stand in square brackets, D forms with d. Residues, ends and D or L forms follow the SMILES beside them. Chains are numbered I, II in the order given. Actinocin(9to1) = Cc1c2oc3c(C)ccc(C(=O)[*:1])c3nc-2c(C(=O)[*:2])c(N)c1=O; aThr = C[C@H](O)[C@H](N)C(=O)O; NMeV = CN[C@H](C(=O)O)C(C)C; Sar = CNCC(=O)O

Tested on: BDF1 mice, P388 leukemia ip, median survival T/C
Assay: NCI In Vivo Anticancer Drug Screen. Data for tumor model P388 Leukemia (intraperitoneal) in B6D2F1 (BDF1) mice
Conditions: endpoint: median survival time, higher = longer survival
Outline: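 Read-out is survival of treated animals expressed relative to the vehicle group, as a T/C ratio.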

`Cc1c2oc3c(C)ccc(C(=O)N[C@@H]4C(=O)N[C@H](C(C)C)C(=O)N5CCC[C@H]5C(=O)N(C)CC(=O)N(C)[C@@H](C(C)C)C(=O)O[C@H]4C)c3nc-2c(C(=O)N[C@@H]2C(=O)N[C@H](C(C)C)C(=O)N3CCC[C@H]3C(=O)N(C)CC(=O)N(C)[C@@H](C(C)C)C(=O)O[C@H]2C)c(N)c1=O` (I: [aThr][dV]P[Sar][NMeV] / II: [aThr][dV]P[Sar][NMeV]; ester I:1-I:C, II:1-II:C; linker I:N-II:N via Actinocin(9to1)) was tested, and the T/C (dose: 0.03 mg/kg/injection, schedule: Q01DX009 (ip), vehicle: saline) was 233 % of control, the T/C (dose: 0.03 mg/kg/injection, schedule: Q04DX003 (ip), vehicle: saline + alcohol) was 161 % of control and the T/C (dose: 0.06 mg/kg/injection, schedule: Q04DX003 (ip), vehicle: saline + alcohol) was 157 % of control. For the same molecule, the T/C (dose: 0.07 mg/kg/injection, schedule: Q01DX009 (ip), vehicle: saline) was 250 % of control, the T/C (dose: 0.1 mg/kg/injection, schedule: Q01DX001 (ip), vehicle: saline) was 194 % of control and the T/C (dose: 0.13 mg/kg/injection, schedule: Q01DX009 (ip), vehicle: saline) was 100 % of control. For the same molecule, the T/C (dose: 0.13 mg/kg/injection, schedule: Q04DX003 (ip), vehicle: saline + alcohol) was 184 % of control, the T/C (dose: 0.2 mg/kg/injection, schedule: Q01DX001 (ip), vehicle: saline) was 225 % of control and the T/C (dose: 0.25 mg/kg/injection, schedule: Q01DX001 (ip), vehicle: saline) was 178 % of control. The T/C (dose: 0.26 mg/kg/injection, schedule: Q01DX001 (ip), vehicle: saline) was 167 % of control, the T/C (dose: 0.3 mg/kg/injection, schedule: Q04DX003 (ip), vehicle: saline) was 100 % of control and the T/C (dose: 0.35 mg/kg/injection, schedule: Q01DX001 (ip), vehicle: other) was 166 % of control. The T/C (dose: 0.35 mg/kg/injection, schedule: Q01DX001 (ip), vehicle: saline) was 176 % of control and 185 % of control, the T/C (dose: 0.35 mg/kg/injection, schedule: Q04DX003 (ip), vehicle: saline) was 95 % of control and the T/C (dose: 0.4 mg/kg/injection, schedule: Q01DX001 (ip), vehicle: water) was 183 % of control. For the same molecule, the T/C (dose: 0.4 mg/kg/injection, schedule: Q04DX003 (ip), vehicle: saline) was 90 % of control, the T/C (dose: 0.5 mg/kg/injection, schedule: Q01DX001 (ip), vehicle: other) was 192 % of control and the T/C (dose: 0.5 mg/kg/injection, schedule: Q04DX003 (ip), vehicle: saline + alcohol) was 79 % of control. The T/C (dose: 0.54 mg/kg/injection, schedule: Q01DX001 (ip), vehicle: saline) was 195 % of control, the T/C (dose: 0.6 mg/kg/injection, schedule: Q01DX001 (ip), vehicle: saline) was 223 % of control and the T/C (dose: 0.8 mg/kg/injection, schedule: Q01DX001 (ip), vehicle: other) was 236 % of control. For the same molecule, the T/C (dose: 0.9 mg/kg/injection, schedule: Q01DX001 (ip), vehicle: saline) was 230 % of control, the T/C (dose: 1.2 mg/kg/injection, schedule: Q01DX001 (ip), vehicle: saline) was 225 % of control and the T/C (dose: 3.1 micrograms/kg/injection, schedule: Q01DX001 (ip), vehicle: saline) was 118 % of control. The T/C (dose: 3.1 micrograms/kg/injection, schedule: Q01DX010 (ip), vehicle: saline) was 170 % of control, the T/C (dose: 3.1 micrograms/kg/injection, schedule: Q04DX003 (ip), vehicle: saline) was 113 % of control and the T/C (dose: 6.3 micrograms/kg/injection, schedule: Q01DX001 (ip), vehicle: saline) was 122 % of control. The T/C (dose: 12.5 micrograms/kg/injection, schedule: Q01DX009 (ip), vehicle: saline) was 177 % of control, the T/C (dose: 12.5 micrograms/kg/injection, schedule: Q01DX009 (ip), vehicle: water) was 153 % of control and the T/C (dose: 12.5 micrograms/kg/injection, schedule: Q01DX010 (ip), vehicle: saline) was 225 % of control. For the same molecule, the T/C (dose: 12.5 micrograms/kg/injection, schedule: Q04DX003 (ip), vehicle: saline) was 154 % of control, the T/C (dose: 21.6 micrograms/kg/injection, schedule: Q01DX009 (ip), vehicle: saline + alcohol) was 238 % of control and the T/C (dose: 25.0 micrograms/kg/injection, schedule: Q01DX009 (ip), vehicle: saline + alcohol) was 294 % of control and 162 % of control. The T/C (dose: 25.0 micrograms/kg/injection, schedule: Q01DX009 (ip), vehicle: saline) was 250 % of control and 274 % of control and 200 % of control, the T/C (dose: 25.0 micrograms/kg/injection, schedule: Q01DX009 (ip), vehicle: water) was 155 % of control and the T/C (dose: 25.0 micrograms/kg/injection, schedule: Q01DX010 (ip), vehicle: saline) was 245 % of control. For the same molecule, the T/C (dose: 25.0 micrograms/kg/injection, schedule: Q03HX024 (ip), vehicle: saline) was 263 % of control, the T/C (dose: 25.0 micrograms/kg/injection, schedule: Q04DX003 (ip), vehicle: saline) was 154 % of control and the T/C (dose: 30.0 micrograms/kg/injection, schedule: Q03HX024 (ip), vehicle: saline) was 250 % of control. The T/C (dose: 35.0 micrograms/kg/injection, schedule: Q03HX024 (ip), vehicle: saline) was 100 % of control, the T/C (dose: 36.0 micrograms/kg/injection, schedule: Q01DX009 (ip), vehicle: saline + alcohol) was 241 % of control and 314 % of control and the T/C (dose: 37.5 micrograms/kg/injection, schedule: Q01DX009 (ip), vehicle: saline + alcohol) was 228 % of control and 169 % of control. For the same molecule, the T/C (dose: 38.9 micrograms/kg/injection, schedule: Q04DX003 (ip), vehicle: saline + alcohol) was 174 % of control, the T/C (dose: 50.0 micrograms/kg/injection, schedule: Q01DX001 (ip), vehicle: saline) was 154 % of control and the T/C (dose: 50.0 micrograms/kg/injection, schedule: Q01DX009 (ip), vehicle: saline + alcohol) was 281 % of control and 294 % of control and 191 % of control. The T/C (dose: 50.0 micrograms/kg/injection, schedule: Q01DX009 (ip), vehicle: saline) was 268 % of control and 271 % of control and 352 % of control, the T/C (dose: 50.0 micrograms/kg/injection, schedule: Q01DX009 (ip), vehicle: water) was 301 % of control and 106 % of control and the T/C (dose: 50.0 micrograms/kg/injection, schedule: Q01DX010 (ip), vehicle: other) was 295 % of control. The T/C (dose: 50.0 micrograms/kg/injection, schedule: Q01DX010 (ip), vehicle: saline) was 295 % of control and 300 % of control, the T/C (dose: 50.0 micrograms/kg/injection, schedule: Q04DX003 (ip), vehicle: saline) was 177 % of control and the T/C (dose: 60.0 micrograms/kg/injection, schedule: Q01DX009 (ip), vehicle: saline + alcohol) was 314 % of control and 348 % of control. The T/C (dose: 64.8 micrograms/kg/injection, schedule: Q04DX003 (ip), vehicle: saline + alcohol) was 168 % of control, the T/C (dose: 75.0 micrograms/kg/injection, schedule: Q01DX009 (ip), vehicle: saline + alcohol) was 292 % of control and 99 % of control and the T/C (dose: 75.0 micrograms/kg/injection, schedule: Q01DX009 (ip), vehicle: saline) was 100 % of control. For the same molecule, the T/C (dose: 75.0 micrograms/kg/injection, schedule: Q04DX003 (ip), vehicle: saline + alcohol) was 247 % of control, the T/C (dose: 75.0 micrograms/kg/injection, schedule: Q04DX003 (ip), vehicle: saline) was 257 % of control and 182 % of control and the T/C (dose: 75.0 micrograms/kg/injection, schedule: Q04DX003 (ip), vehicle: water) was 183 % of control. The T/C (dose: 100.0 micrograms/kg/injection, schedule: Q01DX001 (ip), vehicle: saline) was 168 % of control, the T/C (dose: 100.0 micrograms/kg/injection, schedule: Q01DX009 (ip), vehicle: saline) was 91 % of control and 107 % of control and the T/C (dose: 100.0 micrograms/kg/injection, schedule: Q01DX009 (ip), vehicle: water) was 336 % of control. The T/C (dose: 100.0 micrograms/kg/injection, schedule: Q01DX010 (ip), vehicle: saline) was 105 % of control and 120 % of control, the T/C (dose: 100.0 micrograms/kg/injection, schedule: Q04DX003 (ip), vehicle: saline) was 231 % of control and the T/C (dose: 112.5 micrograms/kg/injection, schedule: Q04DX003 (ip), vehicle: saline + alcohol) was 274 % of control and 161 % of control. For the same molecule, the T/C (dose: 150.0 micrograms/kg/injection, schedule: Q04DX003 (ip), vehicle: saline) was 273 % of control and 306 % of control, the T/C (dose: 200.0 micrograms/kg/injection, schedule: Q01DX001 (ip), vehicle: saline) was 177 % of control and the T/C (dose: 200.0 micrograms/kg/injection, schedule: Q01DX010 (ip), vehicle: saline) was 90 % of control. The T/C (dose: 225.0 micrograms/kg/injection, schedule: Q04DX003 (ip), vehicle: saline + alcohol) was 290 % of control and 327 % of control and 182 % of control, the T/C (dose: 300.0 micrograms/kg/injection, schedule: Q04DX003 (ip), vehicle: saline) was 361 % of control and the T/C (dose: 300.0 micrograms/kg/injection, schedule: Q04DX003 (ip), vehicle: water) was 232 % of control. The T/C (dose: 400.0 micrograms/kg/injection, schedule: Q01DX001 (ip), vehicle: saline) was 227 % of control, the T/C (dose: 400.0 micrograms/kg/injection, schedule: Q04DX003 (ip), vehicle: saline) was 236 % of control and the T/C (dose: 600.0 micrograms/kg/injection, schedule: Q04DX003 (ip), vehicle: saline + alcohol) was 118 % of control. The T/C (dose: 600.0 micrograms/kg/injection, schedule: Q04DX003 (ip), vehicle: water) was 189 % of control.
